Patent US4457929A, “3-Quaternary ammonium methyl)-substituted cephalosporin derivatives” (Bristol-Myers Company, priority 1982, dated 1984)

How the values were obtained:
[1] = system: Cephalothinsensitive E. coli (2 strains), Kl. pneumoniae (1 strain) and Pr. mirabilis (2 strains); assay: MIC by two-fold serial agar dilution, group (G-)-Ia; format: cell-based; details: Mueller-Hinton agar, cephalothin-sensitive, 5 strains, Example 1: two different batches; for MIC: read-out: Geometric Mean of MIC (G-)-Ia
Description: (§1) The preferred compounds of Formula I are those in which R^1 is hydrogen, R^2 is methyl, R^3 is methyl or ethyl, and R^4 is methyl, ethyl, 2-hydroxyethyl, 2-(dimethylamino)ethyl, allyl or pyridylmethyl. Particularly preferred compounds are those in which R^1 is hydrogen, R^2 and R^3 are methyl, and R^4 is methyl, 2-hydroxyethyl or allyl. The most preferred compound is that in which R^1 is hydrogen and R^2, R^3 and R^4 are methyl. In the primary evaluation of the preferred compounds of this invention, the Minimum Inhibitory Concentrations (MIC's) of the compounds were determined by the two-fold serial agar dilution method in Mueller-Hinton agar against 32 strains of test organisms in six groups.
(G-)Ia: Cephalothinsensitive E. coli (2 strains), Kl. pneumoniae (1
strain) and Pr. mirabilis (2 strains)

[2] = system: Cephalothinresistant E. coli (3 strains) and Kl. pneumoniae (3 strains); assay: MIC by two-fold serial agar dilution, group (G-)-Ib; format: cell-based; details: cephalothin-resistant, 6 strains, Example 1: two different batches; for MIC: Escherichia coli, read-out: Geometric Mean of MIC (G-)-Ib, Mueller-Hinton agar
Description: as §1
(G-)Ib: Cephalothinresistant E. coli (3 strains) and Kl. pneumoniae (3

[3] = system: Penicillinresistant S. aureus (5 strains); assay: MIC by two-fold serial agar dilution, group (G+)-Ib; format: cell-based; details: Staphylococcus aureus, Mueller-Hinton agar, penicillin-resistant S. aureus, Example 1: two different batches, read-out: Geometric Mean of MIC (G+)-Ib
Description: as §1
(G+)Ib: Penicillinresistant S. aureus (5 strains)

[4] = system: Ps. aeruginosa (6 strains); assay: MIC by two-fold serial agar dilution, group (G-)-III; format: cell-based; details: Mueller-Hinton agar, Example 1: two different batches; for MIC: Pseudomonas aeruginosa, read-out: Geometric Mean of MIC (G-)-III
Description: as §1
(G-)III: Ps. aeruginosa (6 strains)

[5] = system: Pr. morganii (1 strain), Ent. cloacae (2 strains) and Ser. marcescens (2 strains); assay: MIC by two-fold serial agar dilution, group (G-)-II; format: cell-based; details: Mueller-Hinton agar; 5 strains; Example 1: two different batches; read-out: Geometric Mean of MIC (G-)-II
Description: as §1
(G-)II: Pr. morganii (1 strain), Ent. cloacae (2 strains) and Ser.

[6] = system: Penicillinsensitive S. aureus (5 strains); assay: MIC by two-fold serial agar dilution, group (G+)-Ia; format: cell-based; details: Mueller-Hinton agar, penicillin-sensitive S. aureus, Example 1: two different batches; for MIC: Staphylococcus aureus, read-out: Geometric Mean of MIC (G+)-Ia
Description: as §1
(G+)Ia: Penicillinsensitive S. aureus (5 strains)

[7] = system: H. influenzae (3) (ampicillin resistant); assay: In vitro activity against fastidious bacteria in GC agar: H. influenzae (ampicillin resistant); format: cell-based; details: Haemophilus influenzae, 3 strains, read-out: Geometric Mean of MIC
Procedure: (§2) The in vitro activity of the most preferred Compound Ia against 31 strains of fastidious bacteria was determined in GC agar, and the results are shown in Table 3.

[8] = system: S. pneumoniae (6); assay: In vitro activity against fastidious bacteria in GC agar: S. pneumoniae; format: cell-based; details: Streptococcus pneumoniae, 6 strains, read-out: Geometric Mean of MIC
Procedure: as §2

[9] = system: N. meningitidis (5); assay: In vitro activity against fastidious bacteria in GC agar: N. meningitidis; format: cell-based; details: Neisseria meningitidis, 5 strains, read-out: Geometric Mean of MIC
Procedure: as §2

[10] = system: N. gonorrhoeae (4); assay: In vitro activity against fastidious bacteria in GC agar: N. gonorrhoeae; format: cell-based; details: Neisseria gonorrhoeae, 4 strains, read-out: Geometric Mean of MIC
Procedure: as §2

[11] = Mouse blood levels following a single intramuscular injection; format: in vivo; details: im, mice, 20 mg/kg
Procedure: The absorption of the most preferred Compound Ia (prepared in Example 1) was determined in mice following a single intramuscular injection of the test compound (dissolved in 0.1M phosphate buffer; pH 7) at a dosage of 20 mg/kg. Blood samples were collected from the orbital sinuses into heparinized capillary tubes and assayed in Mueller-Hinton medium using Morganella morganii A9695 as the test organism. The blood levels at various time intervals, the half-life values (t1/2) and the areas under the curve (AUC) are shown in Table 2.

[12] = system: S. pyogenes (6 strains); assay: In vitro activity against fastidious bacteria in GC agar: S. pyogenes; format: cell-based; details: Streptococcus pyogenes, read-out: Geometric Mean of MIC
Procedure: as §2

[13] = system: H. influenzae (7) (ampicillin sensitive); assay: In vitro activity against fastidious bacteria in GC agar: H. influenzae (ampicillin sensitive); format: cell-based; details: Haemophilus influenzae, 7 strains, read-out: Geometric Mean of MIC
Procedure: as §2

| Structure (SMILES) | MIC [1] | MIC [2] | MIC [3] | MIC [4] | MIC [5] | MIC [6] | also measured |
| --- | --- | --- | --- | --- | --- | --- | --- |
| CO/N=C(\C(=O)NC1C(=O)N2C(C(=O)[O-])=C(C[N+](C)(C)Cc3cccnc3)CSC12)c1csc(N)n1 (centres unmarked) [Example 4, 7-[(Z)-2-(2-Aminothiazol-4-yl)-2-methoxyiminoacetamido]-3-[N,N-dimethyl-N-(3-pyridylmethyl)ammonium]methyl-3-cephem-4-carboxylate] | 0.057 µg/mL | 0.22 µg/mL | 4.7 µg/mL | 7.1 µg/mL | 0.69 µg/mL | 2.1 µg/mL |  |
| CO/N=C(\C(=O)NC1C(=O)N2C(C(=O)[O-])=C(C[N+](C)(C)C)CSC12)c1csc(N)n1 (centres unmarked) [Example 1, 7-[(Z)-2-(2-Aminothiazol-4-yl)-2-methoxyiminoacetamido]-3-(trimethylammonium)methyl-3-cephem-4-carboxylate] | 0.033 µg/mL | 0.25 µg/mL | 3.6 µg/mL | 3.2 µg/mL | 0.69 µg/mL | 1.1 µg/mL | MIC [7]: 0.2 µg/mL; Geometric Mean of MIC (G-)-Ia [1]: 0.029 µg/mL; MIC [8]: 0.013 µg/mL; Geometric Mean of MIC (G-)-Ib ([2]; Mueller-Hinton agar): 0.20 µg/mL; MIC [9]: 0.016 µg/mL; Geometric Mean of MIC (G-)-III [4]: 4.0 µg/mL; MIC [10]: 0.013 µg/mL; AUC [11]: 10000 ng·h/mL; half-life [11]: 24 min; concentration at 10 min ([11]; 10 minutes, read-out: Blood levels at minutes after administration: 10): 14000 ng/mL; concentration at 20 min ([11]; 20 minutes, read-out: Blood levels at minutes after administration: 20): 12000 ng/mL; concentration at 0.5 h ([11]; 30 minutes, read-out: Blood levels at minutes after administration: 30): 8800 ng/mL; concentration at 40 min ([11]; 40 minutes, read-out: Blood levels at minutes after administration: 40): 7500 ng/mL; concentration at 50 min ([11]; 50 minutes, read-out: Blood levels at minutes after administration: 50): 4700 ng/mL; concentration at 1 h ([11]; 60 minutes, read-out: Blood levels at minutes after administration: 60): 4400 ng/mL; concentration at 1.5 h ([11]; 90 minutes, read-out: Blood levels at minutes after administration: 90): 1500 ng/mL; concentration at 2 h ([11]; 120 minutes, read-out: Blood levels at minutes after administration: 120): 740 ng/mL; MIC [12]: 0.013 µg/mL; MIC [13]: 0.013 µg/mL; Geometric Mean of MIC (G+)-Ia [6]: 1.6 µg/mL |
| C=CC[N+](C)(C)CC1=C(C(=O)[O-])N2C(=O)C(NC(=O)/C(=N\OC)c3csc(N)n3)C2SC1 (centres unmarked) [Example 3, 7-[(Z)-2-(2-Aminothiazol-4-yl)-2-methoxyiminoacetamido]-3-(N,N-dimethyl-N-allylammonium)methyl-3-cephem-4-carboxylate] | 0.044 µg/mL | 0.22 µg/mL | 3.6 µg/mL | 5.6 µg/mL | 0.69 µg/mL | 1.4 µg/mL |  |
| CCO/N=C(\C(=O)NC1C(=O)N2C(C(=O)[O-])=C(C[N+](C)(C)C)CSC12)c1csc(N)n1 (centres unmarked) [Example 8, 7-[(Z)-2-(2-Aminothiazol-4-yl)-2-ethoxyiminoacetamido]-3-(trimethylammonium)methyl-3-cephem-4-carboxylate] | 0.087 µg/mL | 0.5 µg/mL | 5.5 µg/mL | 7.9 µg/mL | 1.4 µg/mL | 2.1 µg/mL |  |
| CO/N=C(\C(=O)NC1C(=O)N2C(C(=O)[O-])=C(C[N+](C)(C)CCO)CSC12)c1csc(N)n1 (centres unmarked) [Example 2, 7-[(Z)-2-(2-Aminothiazol-4-yl)-2-methoxyiminoacetamido]-3-[N,N-dimethyl-N-(2-hydroxyethyl)ammonium]methyl-3-cephem-4-carboxylate] | 0.038 µg/mL | 0.18 µg/mL | 4.7 µg/mL | 3.5 µg/mL | 0.6 µg/mL | 1.6 µg/mL |  |
